Measured values taken from patent US11925624B2, “Methods of administering anti-fibrotic therapy” (GENENTECH, INC., priority 2016, dated 2024).
Like-named read-outs stand apart in the source and are kept apart here.

Experiment: Phase 1 Part A proton pump inhibitor (rabeprazole) effect on single-dose pharmacokinetics
Type: in vivo, human
Conditions: for AUC0-t (norm) / AUC0-∞ (norm) / CL/F / CL/F(norm) / Cmax (norm) / λZ / % AUCextrap / AUC(0-inf) / AUC(0-t) / Cmax / half-life / Tmax / Vd/F: +20 mg Rabeprazole QD x 3; for % AUCextrap: arithmetic mean; for AUC(0-inf) / AUC(0-t) / Cmax / half-life / Tmax / Vd/F: human, plasma, oral; for Tmax: median
Excerpt: This study was a randomized, blinded, placebo-controlled, ascending-dose study to evaluate the safety, tolerability, and pharmacokinetic (PK) of single (Part A) and multiple (Part B) doses of Compound I in healthy subjects. In addition, the effects of a standard high-fat breakfast, standard low-fat breakfast, and pretreatment and co-administration of a proton pump inhibitor (PPI) on the tolerability and PK of a single dose of Compound I were investigated in 2 groups in Part A. All subjects received their full dose of Compound I, administered as the appropriate number of either 25 or 200 mg tablets. The high fat breakfast comprised the following: total energy: 895 kcal; total fat: 61 g; total protein: 41 g; total carbohydrate: 46 g. The low fat breakfast comprised the following: total energy: 611 kcal; total fat: 14.7 g; total protein: 20.3 g; total carbohydrate: 106.3 g.
For Group A4, doses (400 mg Compound I or placebo) during Treatment Period 1 were administered in a fasted state on the morning of Day 1. Doses in Treatment Period 2 were administered 30 minutes after starting, and within approximately 10 minutes of completing, a high-fat standard breakfast on the morning of Day 1. Doses during Treatment Period 3 were administered 30 minutes after starting, and within approximately 10 minutes of completing a low-fat standard meal on the morning of Day 1. Doses during Treatment Period 4 were administered on Day 1 after an overnight fast and following administration of a PPI (rabeprazole 20 mg) for 3 days (given as 3 daily [QD] doses, with the final PPI dose at 2 hours prior to study drug administration on Day 1). Subjects in Group A4 received the same Compound I or placebo treatment in all treatment periods, such that each subject received up to 4 single doses of Compound I or placebo.
For Group A5, doses (800 mg Compound I or placebo) during Treatment Period 1 were administered in a fasted state on the morning of Day 1, doses during Treatment Period 2 were administered 30 minutes after starting a low-fat standard breakfast on the morning of Day 1, and doses during Treatment Period 3 were administered on Day 1 after a low-fat meal and following administration of a PPI (rabeprazole 20 mg) for 3 days (given as 3 QD doses, with the final PPI dose at 2 hours prior to study drug administration on Day 1). Subjects in Group A5 received the same Compound I or placebo treatment in all treatment periods, such that each subject received up to 3 single doses of Compound I or placebo.
In Part A, all doses in Treatment Period 1 were administered after an overnight fast of at least 8 hours. For the A4 cohort, in Treatment Periods 2 and 3, doses were administered 30 minutes after starting and approximately 10 minutes after completing a high- or low-fat breakfast. In Treatment Period 4, the dose was administered after an overnight fast and following administration of a PPI (PPI was comprised of 3 doses of rabeprazole 20 mg, starting on Day −2 and with the final dose 2 hours before Compound I administration on Day 1). For Group A5, doses during Treatment Period 2 were administered 30 minutes after starting and approximately 10 minutes after completing a low-fat standard breakfast on the morning of Day 1, and doses during Treatment Period 3 were administered on Day 1 after a low-fat meal and following administration of a PPI for 3 days (given as 3 QD doses, with the final PPI dose at 2 hours prior to study drug administration on Day 1).

[1] = 400 mg Fasted + 20 mg Rabeprazole QD x 3 (Test) vs 400 mg Fasted (Reference)
[2] = 400 mg single dose (A4), Fasted
[3] = 800 mg Fed, Low-fat + 20 mg Rabeprazole QD x 3 (Test) vs 800 mg Fed, Low-fat (Reference)
[4] = 800 mg single dose (A5), Fed, Low-fat
[5] = pretreatment and co-administration of 20 mg rabeprazole (QD×3), low-fat fed state, compared to Compound I alone

Test/Reference ratio of LS means, AUC0-t [1]: 86.4% | Test/Reference ratio of LS means, AUC0-∞ [1]: 87.2% | Test/Reference ratio of LS means, Cmax [1]: 83.6% | AUC0-t (norm) [2]: 8130 (hr*ng/mL)/(mg/kg) | AUC0-∞ (norm) [2]: 8410 (hr*ng/mL)/(mg/kg) | CL/F [2]: 139 mL/min | CL/F(norm) [2]: 1.98 (mL/min)/kg | Cmax (norm) [2]: 660 ng/mL/mg/kg | λZ [2]: 0.0603 h⁻¹ | % AUCextrap [2]: 3.25% | Test/Reference ratio of LS means, AUC0-t [3]: 76.5% | Test/Reference ratio of LS means, AUC0-∞ [3]: 77.2% | Test/Reference ratio of LS means, Cmax [3]: 75.0% | AUC0-t (norm) [4]: 11000 (hr*ng/mL)/(mg/kg) | AUC0-∞ (norm) [4]: 11100 (hr*ng/mL)/(mg/kg) | CL/F [4]: 108 mL/min | CL/F(norm) [4]: 1.50 (mL/min)/kg | Cmax (norm) [4]: 900 ng/mL/mg/kg | λZ [4]: 0.0666 h⁻¹ | % AUCextrap [4]: 1.27% | AUC(0-inf) [2]: 48100 ng·h/mL | AUC(0-t) [2]: 46500 ng·h/mL | Cmax [2]: 3770 ng/mL | half-life [2]: 10.5 h | Tmax [2]: 2.5 h | Vd/F (400 mg single dose (A4), Fasted, read-out: Vz/F): 138 L | Vd/F (400 mg single dose (A4), Fasted, read-out: Vz/F(norm)): 1.97 L/kg | AUC(0-inf) [4]: 124000 ng·h/mL | AUC(0-t) [4]: 122000 ng·h/mL | Cmax [4]: 10000 ng/mL | half-life [4]: 8.92 h | Tmax [4]: 3 h | Vd/F (800 mg single dose (A5), Fed, Low-fat, read-out: Vz/F): 97.2 L | Vd/F (800 mg single dose (A5), Fed, Low-fat, read-out: Vz/F(norm)): 1.35 L/kg | Decrease in AUC0-t [5]: 23.5% | Decrease in AUC0-∞ [5]: 22.8% | Decrease in Cmax [5]: 25.0%
Compound: Cn1cc(-c2cn(-c3ccc(OC(F)(F)F)cc3)c(=O)c3ncn(C)c23)cn1 [Compound I]
